In patent US12162888B2, “Carboxamides as ubiquitin-specific protease inhibitors” (Valo Early Discovery, Inc., priority 2018, dated 2024):

What follows are molecules tested against T1, USP28 (His-tagged USP28-FL-mammalian) (Homo sapiens, UniProt Q96RU2) (assay: Ubiquitin-Rhodamine 110 Assay for USP28 Activity, Example A-1(a)). Settings: Ubiquitin-Rhodamine 110 biochemical assay, read-out: USP28 A-1(a) IC50 range.
T1 construct: Expression of USP28 (1-1077)-TEV-6*His (pTT5 vector) was carried out in Expi293f cells; made in house; host or cells: Expi293F cells (pTT5 vector)
T1 sequence (Q96RU2 1-1077): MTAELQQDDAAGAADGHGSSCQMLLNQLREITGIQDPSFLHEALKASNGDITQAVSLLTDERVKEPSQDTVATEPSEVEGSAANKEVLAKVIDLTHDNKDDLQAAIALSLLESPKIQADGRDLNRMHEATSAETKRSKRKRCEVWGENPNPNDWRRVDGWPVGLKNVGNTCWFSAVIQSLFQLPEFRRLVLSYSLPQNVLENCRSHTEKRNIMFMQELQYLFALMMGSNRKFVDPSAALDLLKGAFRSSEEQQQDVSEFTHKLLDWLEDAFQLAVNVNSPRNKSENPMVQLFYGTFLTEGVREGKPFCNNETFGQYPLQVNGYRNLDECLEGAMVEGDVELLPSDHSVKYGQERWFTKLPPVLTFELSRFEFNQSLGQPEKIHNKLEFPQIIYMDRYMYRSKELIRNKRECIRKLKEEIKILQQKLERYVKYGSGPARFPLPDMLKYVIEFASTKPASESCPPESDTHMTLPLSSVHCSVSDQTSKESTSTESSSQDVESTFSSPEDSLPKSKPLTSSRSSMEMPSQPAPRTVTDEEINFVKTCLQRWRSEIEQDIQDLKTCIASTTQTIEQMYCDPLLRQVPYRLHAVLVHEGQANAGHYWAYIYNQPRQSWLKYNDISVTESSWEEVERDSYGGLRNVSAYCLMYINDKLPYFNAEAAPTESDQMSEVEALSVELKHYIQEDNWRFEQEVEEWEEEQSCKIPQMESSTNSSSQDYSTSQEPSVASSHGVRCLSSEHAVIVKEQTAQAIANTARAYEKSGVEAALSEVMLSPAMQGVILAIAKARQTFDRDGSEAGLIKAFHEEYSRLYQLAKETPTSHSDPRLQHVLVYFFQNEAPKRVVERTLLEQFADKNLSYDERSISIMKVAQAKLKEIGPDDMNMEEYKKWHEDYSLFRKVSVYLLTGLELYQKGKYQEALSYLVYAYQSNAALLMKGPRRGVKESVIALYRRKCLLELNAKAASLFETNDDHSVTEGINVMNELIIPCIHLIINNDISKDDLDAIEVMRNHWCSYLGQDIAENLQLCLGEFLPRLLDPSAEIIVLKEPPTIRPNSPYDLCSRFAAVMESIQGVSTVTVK
Type: biochemical
Protocol: Example A-1(a): Biochemical Assay: Ubiquitin-Rhodamine 110 Assay for USP28 Activity
The assay was performed in a final volume of 9 μL in assay buffer containing 20 mM Tris-HCl (pH 8.0, (1M Tris-HCl, pH 8.0 solution; Corning 46-031-CM)), 3 mM BME (2-Mercaptoethanol; Sigma 63689-25ML-F), 0.03% BGG (0.22 μM filtered, Sigma, G7516-25G), and 0.01% Triton X-100 (Sigma, T9284-10L). Nanoliter quantities of 10-point, 3-fold serial dilution in DMSO was pre-dispensed into 1536 assay plates (Corning, #3724BC) for a final test concentration of 25 μM to 1.3 nM, top to lowest dose, respectively. Enzyme USP28, construct His-tagged USP28-FL-mammalian, (protein expression and purification procedure described below). Concentration and incubation times were optimized for the maximal signal-to-background while maintaining initial velocity conditions at a fixed substrate concentration. The final concentration of the enzyme in the assay was […]. Final substrate (Ub-Rh110; Ubiquitin-Rhodamine 110, UbiQ-126) concentration was 25 nM with [Ub-Rh110]<<Km. 3 μL of 2× enzyme was added to assay plates (pre-stamped with compound) preincubated with […] for 30 minutes and then 3 μL of 2× Ub-Rh110 was added to assay plates. Plates were incubated for 45 minutes at room temperature before addition of 3 μL of stop solution (final concentration of 10 mM citric acid (Sigma, 251275-500G)). Fluorescence was read on the Envision (Excitation at 485 nm and Emission at 535 nm; Perkin Elmer) or on the PheraSTAR (Excitation at 485 nm and Emission at 535 nm; BMG Labtech).
Procedure for the Protein expression and purification for construct His-tagged USP28-FL-mammalian
Expression of USP28 (1-1077)-TEV-6*His (pTT5 vector) was carried out in Expi293f cells (sequence derived from uniprot ID: Q96RU2-1). Cells were re-suspended in lysis buffer B 50 mM Bicine, pH 8.0, 20 mM NaCl, 5% glycerol, 0.1% CHAPS, 5 mM β-ME, 1 mM PMSF, 1 ug/ml Leupeptin, 1 ug/ml Pepstatin) and lysed by sonication. Insoluble material was removed by centrifugation and the supernatant was loaded onto a Ni-NTA column (GE Healthcare) equilibrated with Ni Buffer A (50 mM Bicine, pH 8.0, 20 mM NaCl, 5% glycerol, 0.1% CHAPS, 5 mM R-ME.) and washed with Ni Buffer A+20 mM imidazole until A280 reached baseline. The protein was eluted with Ni Buffer B (50 mM Bicine, pH 8.0, 20 mM NaCl, 5% glycerol, 0.1% CHAPS, 5 mM β-ME, 300 mM imidazole.). The protein was further purified using a Superdex™ 200 10/300 GL column (GE Healthcare) equilibrated with 50 mM Bicine, pH 8.0, 20 mM NaCl, 5% glycerol, 0.1% CHAPS, 5 mM β-ME. The protein was concentrated to 2.5 mg ml-1, flash-frozen in liquid N2 and stored at −80° C.
For assay formats Example A-1(a), A-1(b), and A-2, data were reported as percent inhibition compared with control wells based on the following equation: % inh=1−((FLU−AveLow)/(AveHigh−AveLow)) where FLU=measured Fluorescence, AveLow=average Fluorescence of no enzyme control (n=16), and AveHighh=average Fluorescence of DMSO control (n=16). IC50 values were determined by curve fitting of the standard 4 parameter logistic fitting algorithm included in the Activity Base software package: IDBS XE Designer Model 205. Data is fitted using the Levenburg Marquardt algorithm.
Molecule CO[C@@H]1CCCN(c2ccc3c(n2)CC[C@H](NC(=O)c2sc4nc(C)ccc4c2N)C3)C[C@@H]1N [Example 495, 3-amino-N-[(6S)-2-[(3S,4R)-3-amino-4-methoxyazepan-1-yl]-5,6,7,8-tetrahydroquinolin-6-yl]-6-methylthieno[2,3-b]pyridine-2-carboxamide] has an IC50 of 50 to 200 nM. In the case of COCC(F)(F)[C@H]1CN(c2ccc3c(n2)CC[C@H](NC(=O)c2sc4nc(C)ccc4c2N)C3)C[C@@H]1N [Example 480, 3-amino-N-[(6S)-2-[(3R,4S)-3-amino-4-(1,1-difluoro-2-methoxyethyl)pyrrolidin-1-yl]-5,6,7,8-tetrahydroquinolin-6-yl]-6-methylthieno[2,3-b]pyridine-2-carboxamide], the IC50 is reported as 50 to 200 nM. CN[C@H]1CN(c2ccc3c(n2)CC[C@H](NC(=O)c2sc4nc(C)ccc4c2N)C3)C[C@H]1COC [Example 488, 3-amino-N-[(6S)-2-[(3R,4R)-3-(methoxymethyl)-4-(methylamino)pyrrolidin-1-yl]-5,6,7,8-tetrahydroquinolin-6-yl]-6-methylthieno[2,3-b]pyridine-2-carboxamide] gave an IC50 of 50 to 200 nM. COC[C@@H]1CN(c2ccc3c(n2)CC[C@H](NC(=O)c2sc4nc(C)c(F)cc4c2N)C3)C[C@@H]1N [Example 513, 3-amino-N-[(6S)-2-[(3R,4R)-3-amino-4-(methoxymethyl)pyrrolidin-1-yl]-5,6,7,8-tetrahydroquinolin-6-yl]-5-fluoro-6-methylthieno[2,3-b]pyridine-2-carboxamide] was tested, and the IC50 was 50 to 200 nM. Cc1cnc2c(N)c(C(=O)N[C@H]3CCc4nc(N5C[C@@H](N)C6(C5)OCCO6)ccc4C3)sc2n1 [Example 499, 7-amino-N-[(6S)-2-[(9R)-9-amino-1,4-dioxa-7-azaspiro[4.4]nonan-7-yl]-5,6,7,8-tetrahydroquinolin-6-yl]-3-methylthieno[2,3-b]pyrazine-6-carboxamide] gave an IC50 of 200 to 2000 nM. CO[C@H]1CCCN(c2ccc3c(n2)CC[C@H](NC(=O)c2sc4nc(C)ccc4c2N)C3)C[C@@H]1N [Example 494, 3-amino-N-[(6S)-2-[(3S,4S)-3-amino-4-methoxyazepan-1-yl]-5,6,7,8-tetrahydroquinolin-6-yl]-6-methylthieno[2,3-b]pyridine-2-carboxamide] gave an IC50 of 1 to 50 nM. Cc1ccc2c(N)c(C(=O)N[C@H]3CCc4nc(N5C[C@H](N)[C@@]6(C5)OCC[C@@H]6C)ccc4C3)sc2n1 [Example 509, 3-amino-N-[(6S)-2-[(4S,5R,9S)-9-amino-4-methyl-1-oxa-7-azaspiro[4.4]nonan-7-yl]-5,6,7,8-tetrahydroquinolin-6-yl]-6-methylthieno[2,3-b]pyridine-2-carboxamide] was tested, and the IC50 was 50 to 200 nM.

Same assay, conditions: biochemical IC50 range, Ubiquitin-Rhodamine 110 assay, read-out: USP28 A-1(a)
For CCNC1CN(c2ccc3c(c2)OCC(NC(=O)c2sc4nc(C)ccc4c2N)C3)CC1COC [Example 668, 3-amino-N-[(3R)-7-[(3R,4S)-3-(ethylamino)-4-(mcthoxymcthyl)pyrrolidin-1-yl]-3,4-dihydro-2H-1-benzopyran-3-yl]-6-methylthicno[2,3-b]pyridinc-2-carboxamide], the IC50 was 1 to 50 nM. With CO[C@H]1CN(c2cc(F)c3c(c2)OC[C@H](NC(=O)c2sc4nc(C)ncc4c2N)C3)C[C@@H]1N [Example 693, 5-amino-N-[(3R)-7-[(3S,4S)-3-amino-4-methoxypyrrolidin-1-yl]-5-fluoro-3,4-dihydro-2H-1-benzopyran-3-yl]-2-methylthieno[2,3-d]pyrimidine-6-carboxamide] the IC50 was 200 to 2000 nM. With Cc1ccc2c(N)c(C(=O)N[C@H]3COc4cc(N5C[C@H](N)[C@@]6(C5)OCC[C@H]6C)ccc4C3)sc2n1 [Example 612-2, 3-amino-N-[(3R)-7-[(4R,5R,9S)-9-amino-4-methyl-1-oxa-7-azaspiro[4.4]nonan-7-yl]-3,4-dihydro-2H-1-benzopyran-3-yl]-6-methylthieno[2,3-b]pyridine-2-carboxamide] the IC50 was 1 to 50 nM. With Cc1ccc2c(N)c(C(=O)N[C@H]3COc4cc(N5C[C@H](N)[C@@]6(C5)OCC[C@@H]6C)ccc4C3)sc2n1 [Example 612-1, 3-amino-N-[(3R)-7-[(4S,5R,9S)-9-amino-4-methyl-1-oxa-7-azaspiro[4.4]nonan-7-yl]-3,4-dihydro-2H-1-benzopyran-3-yl]-6-methylthieno[2,3-b]pyridine-2-carboxamide] the IC50 was 1 to 50 nM. Cc1ccc2c(N)c(C(=O)N[C@H]3COc4cc(N5C[C@@H](N)C6(C5)OCCO6)ccc4C3)sc2n1 [Example 682, 3-amino-N-[(3R)-7-[(9R)-9-amino-1,4-dioxa-7-azaspiro[4.4]nonan-7-yl]-3,4-dihydro-2H-1-benzopyran-3-yl]-6-methylthieno[2,3-b]pyridine-2-carboxamide] showed an IC50 of 50 to 200 nM. With Cc1ccc2c(N)c(C(=O)N[C@H]3COc4cc(OC[C@@H]5CNC[C@H]5C(F)(F)F)ccc4C3)sc2n1 [Example 687, 3-amino-6-methyl-N-[(3R)-7-{[(3S,4S)-4-(trifluoromethyl)pyrrolidin-3-yl]methoxy}-3,4-dihydro-2H-1-benzopyran-3-yl]thieno[2,3-b]pyridine-2-carboxamide] the IC50 was 1 to 50 nM. In the case of CO[C@@H]1CCCN(c2cc(F)c3c(c2)OC[C@H](NC(=O)c2sc4nc(C)ccc4c2N)C3)C[C@@H]1N [Example 692, 3-amino-N-[(3R)-7-[(3S,4R)-3-amino-4-methoxyazepan-1-yl]-5-fluoro-3,4-dihydro-2H-1-benzopyran-3-yl]-6-methylthieno[2,3-b]pyridine-2-carboxamide], the IC50 is reported as 1 to 50 nM. With Cc1ccc2c(N)c(C(=O)N[C@H]3COc4cc(N5C[C@@H](N)[C@]6(C5)OCC[C@H]6C)ccc4C3)sc2n1 (single isomer, unassigned) [Example 612-4] the IC50 was 1 to 50 nM. For Cc1ccc2c(N)c(C(=O)N[C@H]3COc4cc(OC[C@@H]5CNCC5(F)F)ccc4C3)sc2n1 [Example 685, 3-amino-N-[(3R)-7-{[(3S)-4,4-difluoropyrrolidin-3-yl]methoxy}-3,4-dihydro-2H-1-benzopyran-3-yl]-6-methylthieno[2,3-b]pyridine-2-carboxamide], the IC50 was 1 to 50 nM.
